Test results as given in patent US20210371385A1, “POLYMORPHIC AND AMORPHOUS FORMS OF ISOQUINOLINONE AND METHODS OF USE THEREOF” (Sojournix, Inc., priority 2018, published 2021).
Converted amounts (≈) assume the structure as drawn. “And” between values parts separate entries of the source, which are not always exact repeats. Equal values may be shown once. “Also recorded” adds a separate entry of the source.

Columns and labels:
Assay type in all cases: physicochemical
[1] = Solubility in water and simulated fluids (FaSSIF, FaSSGF) at 37 °C; settings: for Solubility / solubility at 24 h: 37 °C; for Solubility in FaSSIF: fasted state simulated intestinal fluid; for solubility at 24 h: thermodynamic from solid
Description: The solids were slurried in the respective solution for 24 hrs then the liquid isolated by syringe filtration for analysis by HPLC. The data are summarized in Table 19; the solubility of all forms in all solutions is on the microgram scale. Essentially, none of these are substantially advantageous over the other ones in terms of equilibrium solubility.

[2] = Stability in high humidity (40 °C/75% RH, XRPD); settings: one week
Experimental: Patterns α (L100142-37-5), β (L100142-1-1) and free flowing amorphous solid (L100142-19-1) SJB-01 were exposed to a 40° C./75% RH environment for one week.

[3] = Solid form stability at ambient conditions by XRPD; settings: for Solid form stability: ambient conditions / room temperature, XRPD
[4] = Dynamic vapor sorption (DVS)
Experimental: Pattern β was analyzed using DVS with two sorption/desorption cycles. The solid reversibly picked-up about 0.12% between 2-95% relative humidity at 25° C.
Dynamic Vapor Sorption (DVS) was done using a DVS Intrinsic 1. The sample is loaded into a sample pan and suspended from a microbalance. A typical sample mass for DVS measurement is 25 mg. Nitrogen gas bubbled through distilled water provides the desired relative humidity. A typical measurement comprises the steps:
2. 50% to 2%. (50%, 40%, 30%, 20%, 10% and 2%)-Hold minimum of 5 mins and maximum of 60 minutes at each humidity. The pass criteria is less than 0.002% change.
3. 2% to 95% (2%, 10%, 20%, 30%, 40%, 50%, 60%, 70%, 80%, 90%, 95%)-Hold minimum of 5 mins and maximum of 60 minutes at each humidity. The pass criteria is less than 0.002% change.
4. 95% to 2% (95%, 80%, 70%, 60%, 50%, 40%, 30%, 20%, 10%, 2%)-Hold minimum of 5 mins and maximum of 60 minutes at each humidity. The pass criteria is less than 0.002% change.
5. 2% to 50% (2%, 10%, 20%, 30%, 40%, 50%)-Hold minimum of 5 mins and maximum of 60 minutes at each humidity. The pass criteria is less than 0.002% change.

[5] = Thermodynamic equilibrium aqueous solubility; settings: pH 7.4
[6] = Solubility in vehicles/excipients for in vivo and toxicological studies; settings: for Maximum single dose in solubilized form: dogs, 100% PEG 400, maximum volume 1-2 ml/kg; for Maximum dose in solubilized form, 100% PEG 400 / Maximum dose in solubilized form, Gelucire:PEG 400 90:10: rats; for Maximum dose in solubilized form, 100% PEG 400: 5 ml/kg is maximum volume dose; for Maximum dose in solubilized form, Gelucire:PEG 400 90:10: 10 ml/kg is maximum volume dose
Experimental: In addition, the solubility of SJB-01 was investigated in a large number of vehicles for use in in vivo pharmacological studies, as well as toxicological evaluation of the compound.
Formulations for toxicological evaluation of SJB-01 were considered. The highest solubility was obtained with 100% PEG 400 and a mixture of Gelucire and PEG 400. Since a formulation with Gelucire:PEG required increased handling time, including dosing at ˜45° C., 100% PEG 400 was chosen for formulation purpose in the early toxicological evaluation including mini-MTD (maximum tolerated dose) and a 14 days toxicological dosing study. The maximum dose reached was 140 mg/kg-the highest possible dose achievable with PEG 400 as vehicle. […] From a formulation perspective, this can only be done by using Gelucire:PEG as a vehicle, under the assumption that a solution will lead to a higher bioavailability than dosing the compound in a PEG 400 suspension. In the table below, the maximum dose of SJB-01 given on a solubilized form is provided, taking into account the tolerated dose of the vehicle as well.

[7] = Solubility in bio-relevant media
Experimental: The solubility of the beta polymorph form of SJB-01 was further examined in bio-relevant media. The fasted-state small intestinal fluid (FaSSIF) contained 3 mM sodium taurocholate (bile acid), 0.75 mM lecithin (phosphorlipid) and phosphate buffer to maintain a pH of 6.0. The fed-state small intestinal fluid (FeSSIF) contained 5-fold higher concentration of sodium taurocholate and lecithin and thus higher capacity for micellar solubilization of the compound. The pH in the FeSSIF buffer was maintained to 5.0 with acetate buffer.

[8] = Intrinsic Dissolution Rate (IDR); settings: 0.001 M HCl pH 3.0; pressed tablet
Experimental: The Intrinsic Dissolution Rate (IDR) was calculated for a beta polymorph form of SJB-01. A tablet of the compound was pressed and put into a dissolution chamber. It was subsequently measured how fast the substance was dissolved from the surface into the solvent. Initially, the experiment was performed in a standard buffer (0.001 M HCl pH 3.0), reflecting the stomach conditions at fastened state.
Due to the high impact of bile components on solubilisation of SJB-01, IDR was performed in FeSSIF media, reflecting the fed-state in humans.

[9] = Solubility in buffered solutions vs pH at 37 °C (HPLC); settings: aqueous buffers, aqueous buffer, thermodynamic from solid; about 37 °C; read-out: Solubility in buffered solution (range)
Experimental: Aqueous buffers between pH 1.3 and 7.4 (13 total) were prepared and 3 mL added to about 15 mg of SJB-01 (L100149-44-1, jet-milled). These slurries were stirred on a hot-plate at 37° C. for 24 hours. Sonication and vortexting was employed within the first 2 hours of stirring to ensure thorough mixing and wetting of the solids as there was a clear tendency for them to clump and float at the liquid surface. After sonication and vortexing there was substantial solids suspended in solution (slurry) along with the solids that floated on top. At 24 hours, the samples were collected by syringe filtration of about 2 mL of solution. The first 1 mL of solution that passed through the filter was discarded and the second 0.5-1 mL of solution was used for HPLC analysis. The samples were injected into HPLC without dilution.
SJB-01 (L100149-44-1) was weighed directly into volumetric flasks and filled to volume with ACN:water (6:4 vol.) to build a calibration curve. […] Details for the HPLC method used are given in Table 34; these follow the parameters used for previous dissolution study.

[10] = about 37 °C, listed as amorphous form
[11] = about 37 °C, listed as beta form

CCNn1c(C)c(C(=O)N[C@H](c2ccccc2)C2CC2)c2cccc(F)c2c1=O [Amorphous, 2-ethylamino-8-fluoro-3-methyl-1-oxo-1,2-dihydro-isoquinoline-4-carboxylic acid ((S)-cyclopropyl-phenyl-methyl)-amide]
Solubility ([1]; FaSSGF, 24 hrs): 6 µg/mL (≈ 15.2 µM) | Solubility ([1]; FaSSIF, 24 hrs): 18 µg/mL (≈ 45.7 µM) | Solubility ([1]; Water, 24 hrs): 5 µg/mL (≈ 12.7 µM) | Solubility in water and simulated fluids (range) [1, 10]: 5 to 18 µg/mL | Solubility in FaSSGF ([1]; fasted state simulated gastric fluid, about 37 °C, listed as amorphous form): 6 µg/mL (≈ 15.2 µM) | Solubility in FaSSIF [1, 10]: 18 µg/mL (≈ 45.7 µM) | Solubility in water ([1]; water, about 37 °C, listed as amorphous form): 5 µg/mL (≈ 12.7 µM) | Solid form by XRPD after humidity exposure ([2]; listed as amorphous solid): converted considerably to Pattern β | Solid form stability ([3]; listed as powdered amorphous freebase): still showed an amorphous pattern | Time amorphous form remained stable ([3]; ambient environment): at least 17 days

CCNn1c(C)c(C(=O)N[C@H](c2ccccc2)C2CC2)c2cccc(F)c2c1=O [Pattern α, 2-ethylamino-8-fluoro-3-methyl-1-oxo-1,2-dihydro-isoquinoline-4-carboxylic acid ((S)-cyclopropyl-phenyl-methyl)-amide]
Moisture pick-up by DVS ([4]; 2-95% relative humidity, 25 °C): about 0.6% | Solubility ([1]; FaSSGF, 24 hrs): 7 µg/mL (≈ 17.8 µM) | solubility at 24 h ([1]; FaSSGF, fassgf or other biorelevant, fasted state simulated gastric fluid, about 37 °C, read-out: Solubility in FaSSGF): 7 µg/mL (≈ 17.8 µM) | Solubility ([1]; FaSSIF, 24 hrs): 8 µg/mL (≈ 20.3 µM) | Solubility in FaSSIF ([1]; about 37 °C, listed as alpha form): 8 µg/mL (≈ 20.3 µM) | solubility at 24 h ([1]; water, water, water, about 37 °C, read-out: Solubility in water): 6 µg/mL (≈ 15.2 µM) | solubility at 24 h ([1]; water, FaSSIF and FaSSGF, about 37 °C, read-out: Solubility in water and simulated fluids (range)): 6 to 8 µg/mL (≈ 15.2 to 20.3 µM) | Solid form by XRPD after humidity exposure [2]: converted considerably to Pattern β | Solid form stability [3]: not stable; also recorded: less stable than Pattern β | solubility thermodynamic ([5]; aqueous medium, aqueous buffer, thermodynamic from solid): ~14 µg/mL (≈ 35.6 µM) | Solubility in 100% PEG 400 [6]: 32 mg base/ml | Solubility in Gelucire:PEG 400 90:10 [6]: 40 mg base/ml | Maximum single dose in solubilized form ([6]; listed as α-form): 28 to 56 mg/kg | Maximum dose in solubilized form, 100% PEG 400 ([6]; listed as α-form): 140 mg/kg | Maximum dose in solubilized form, Gelucire:PEG 400 90:10 ([6]; listed as α-form): 360 mg/kg

CCNn1c(C)c(C(=O)N[C@H](c2ccccc2)C2CC2)c2cccc(F)c2c1=O [Pattern β, 2-ethylamino-8-fluoro-3-methyl-1-oxo-1,2-dihydro-isoquinoline-4-carboxylic acid ((S)-cyclopropyl-phenyl-methyl)-amide]
Hygroscopicity ([4]; DVS, two sorption/desorption cycles): not hygroscopic | solubility at 24 h ([1]; FaSSGF (fasted state simulated gastric fluid), fassgf or other biorelevant, FaSSGF, 24 hrs, read-out: Solubility): 6 µg/mL (≈ 15.2 µM) | Solubility ([1]; FaSSIF, 24 hrs): 8 µg/mL (≈ 20.3 µM) | Solubility in water and simulated fluids (range) [1, 11]: 5 to 8 µg/mL and 6 to 10 µg/mL | Solubility in FaSSIF [1, 11]: 8 µg/mL (≈ 20.3 µM) | solubility at 24 h ([1]; water, water, Water, 24 hrs, read-out: Solubility): 5 µg/mL (≈ 12.7 µM) | Solid form by XRPD after humidity exposure [2]: remained unchanged | Solid form stability [3]: most stable polymorph | Thermodynamic equilibrium solubility [5]: ~8 μg base/ml | Solubility in 100% PEG 400 [6]: 22 mg base/ml | Solubility in Gelucire:PEG 400 90:10 [6]: 26 mg base/ml | Maximum single dose in solubilized form ([6]; listed as β-form): 20 to 40 mg/kg | Maximum dose in solubilized form, 100% PEG 400 ([6]; listed as β-form): 100 mg/kg | Maximum dose in solubilized form, Gelucire:PEG 400 90:10 ([6]; listed as β-form): 230 mg/kg | Solubility in bio-relevant media ([7]; 0.001M HCl pH 3.0): 8 μg base/ml | Solubility in bio-relevant media ([7]; FaSSIF, pH 6.0): 11 μg base/ml | Solubility in bio-relevant media ([7]; FeSSIF, pH 5.0): 19 μg base/ml | Intrinsic Dissolution Rate (IDR) [8]: 0.002 mg/cm^2·min | solubility at 24 h [9]: 6.4 to 9.8 µg/mL (≈ 16.3 to 24.9 µM)
